In US20110224197A1, “PYRIMIDINES AND PYRIDINES USEFUL AS INHIBITORS OF PROTEIN KINASES” (Vertex Pharmaceuticals Incorporated, priority 2008, published 2011):

Key:
[1] = tested on: Middle Cerebral Artery Occlusion in adult male Wistar rats; experiment: Post Stroke Recovery Model II (MCA electrocoagulation, behavioral tests); format: in vivo, rat
Description: Adult male Wistar rats are pre-trained on a battery of behavioral tests including: tray reach, gridwalk, forelimb asymmetry (cylinder bracing), forelimb inhibition (swim test) (see below for detailed description of tests). Following pre-stroke behavioral assessment, the rats received surgery, during which a stroke is induced. The rats are pseudo-randomly divided into 5 equal groups (n=12) ensuring an equal number of right and left strokes within each treatment group. The first group receives sham surgery with vehicle as treatment. Administration of the test compound and vehicle (dose, route, timing) is determined by the sponsor. The core body temperature is maintained at 37° C. (+/−1°).
Following surgery, all animals are behaviorally assessed 1, 7, and 14 d post-stroke. At the conclusion of behavioral assessment, all rats undergo an MRI to determine infarct volume. Group behavioral performance and stroke volume are compared between groups using one way analysis of variance to determine therapeutic benefit of the compound in rate and extent of recovery of function following MCAO stroke.
Each animal is weighed (average weights were 340 g) and then anesthetized with isoflurane (4% isoflurane carried on 21/min medical grade oxygen to induce surgical plane and then 2% with 2 l/min oxygen to maintain a surgical plane). Following induction of anesthesia each rat is individually marked with an ear-punch and administered a subcutaneous dose of buprenorphine (0.025 mg/kg). Rectal temperature is monitored and maintained at 37° C.+/−1° C. for the duration of the surgery and until the rat is awake and mobile (approximately 3 hr).
The rat is then placed into a stereotaxic apparatus positioned such that the lateral aspect of the head was facing up. The skin between the eye […] and ear is shaved and washed with surgical antiseptic scrub. A vertical incision is made midway between the right orbit and external auditory canal. The underlying temporalis muscle is incised, detached from the skull and retracted with care to preserve the facial nerve. Two sutures hold the temporal muscle away from the lateral aspect of the skull. A craniotomy is performed from the posterior zygoma and along the temporal ridge of the cranium extending ventrally to expose the middle cerebral artery (MCA) and olfactory tract. The dura is opened, and the base of the MCA and the anterior portion of the first branch is electrocoagulated ventral to the olfactory tract, resulting in infarction of the right dorsolateral cerebral cortex.
Time at which stroke occurred is noted upon completion of the electrocoagulation of the MCA. Once bleeding is controlled, the temporal muscle is replaced and the skin sutured. The rat is then removed from the stereotaxic apparatus and moved to the recovery room. A second subcutaneous dose of buprenorphine (0.025 mg/kg) is administered along with 2 cc of Ringers solution. Water, wet rat chow mash, and a warming blanket under 1/2 the cage is made available while in the recovery room. Once the rat is awake and seen to be eating and drinking, it is moved back into its cage in the animal colony.
Forepaw use is measured with a procedure that is adapted from the method devised by Whishaw, O'Connor, and Dunnett (1986). Each animal is food-restricted such that feeding time occurs after testing each day. The animals are placed in test cages (10×18×10 cm high) with floors and fronts constructed of 2-mm bars, 9 mm apart edge to edge. […]

GSK-3α/β pTYR = experiment: pTYR biomarker analysis in brain, Post Stroke Model II; format: in vivo, rat; settings: all doses, termination of study
Procedure: To track the activity of Compound I-37 in the CNS of rats subjected to MCAO, brains were removed and protein lysate was obtained (as described herein) from both vehicle treated and compound treated animals at the termination of the study. Lysates were analyzed by Western blot and probed for GSK-3α/β pTYR levels.
Protein lysate is obtained from the brains of all vehicle and compound-treated animals and is processed for biomarker analysis of GSK3α/β pTYR and β-catenin by Western blot assay to ensure compound activity on the target.

Which results are given for `Cc1nc(-c2ccccc2Cl)nc(Nc2n[nH]c3ncc(F)cc23)c1C` [Compound I-37, N-(2-(2-chlorophenyl)-5,6-dimethylpyrhnidin-4-yl)-5-fluoro-1H-pyrazolo[3,4-b]pyridin-3-amine]?
Forelimb inhibition (swimming test) deficit ([1]; 7 and 14 days after stroke): significantly ameliorated this deficit; Gridwalk deficit ([1]; 7 and 14 days after stroke): significantly ameliorated this deficit; Tray reaching deficit compared with vehicle treatment ([1]; 7 and 14 days after stroke): significantly ameliorated this deficit; Forepaw asymmetry (cylinder test) deficit ([1]; low dose, 14 days after stroke): significantly ameliorated this deficit; Adhesive removal test ([1]; rat, in vivo): did not show significant effect; pTYR signal compared to vehicle treated rats (GSK-3α/β pTYR): significant reduction
